Entries after “also recorded” stand apart in the source; their conditions may differ.
Columns and labels:
[1] = test system: histone H3 acetylation by PCAF; test: PCAF histone acetylase (HAT) assay, core histones from HeLa cells as template, immunoblot; assay type: biochemical
Experimental: Acid extracted protein from untreated (untrt) HeLa cells was used as template in histone acetylase reactions using HAT enzyme, PCAF, in the presence or absence of 10 uM lunasin. Reaction products were immunoblotted and stained with antibodies against diacetylated histone H3. Untrt (−) is the histone template control, NaB (+) correspond to acid extracted histones from NaButyrate treated HeLa cells (positive control). […] Numbers in parenthesis indicate densitometer readings relative to the untreated control (set as 1) in PCAF HAT reaction products.
Acid extracted histones isolated from untreated (untrt) HeLa cells were used in PCAF HAT reactions, immunoblotted and stained with antibodies to H3 Ac-Lys9 and H3 Ac-Lys14. Untrt (−) is the histone template control, NaB (+) correspond to acid extracted histones from NaButyrate treated HeLa cells (posititve control), +Lun correspond to 10 uM lunasin treated histone template and −Lun correspond to non-lunasin treated. […] Numbers in parenthesis indicate densitometer readings relative to the signal level of lunasin/lunasin treatment (set as 1) in immunoblots stained with Ac-Lys14 H3.
[…] H3 histone acetylation by PCAF histone acetylase enzyme is required for the SREBP activation of genes involved in cholesterol biosynthesis including HMG-CoA reductase (9). Previous study has shown that lunasin is a potent inhibitor of histone H3 acetylation in mammalian cells exposed to the histone deacetylase inhibitor, sodium butyrate (NaB) (4). To determine the effect of lunasin on histone H3 acetylation by PCAF, HAT assay reaction using acid-extracted histones from untreated HeLa cells as template was conducted. […]
The HAT bioactivity assay was conducted using acid extracted core histones from HeLa cells (Upstate/Millipore) as a template (temp (−) control) for the PCAF catalyzed HAT reaction. […] The numbers below the legend indicate relative densitometer readings normalized using immunosignal from the template (temp). […]

[2] = test system: HMG-CoA reductase expression in HepG2 cells; test: Western blot of HMG-CoA reductase expression in HepG2 cells in cholesterol-free media; assay type: cell-based; conditions: 10 uM synthetic lunasin, 24 hours, cholesterol-free media 24 hours
Experimental: (§1) FIG. 2 is a photograph of a Western blot analysis (top) and a table (below) showing densitometer values indicating the relative levels of expression of HMG-CoA reductase in HepG2 cells that were (CFM+LS (24)) or were not (CFM) treated with lunasin for 24 hours prior to incubation in cholesterol free media (CFM) for 24 hours to activate sterol regulatory element binding proteins (SREBP.) After incubations, total protein was extracted and 10 ug protein was loaded onto 10% Tris-glycine gels, electroblotted onto nitrocellulose membrane, and immunostained with primary antibodies raised against HMG-CoA reductase and actin (to show equal loading of proteins.) Spot densitometer values represent mean and standard deviation of data from three separate experiments.
In the first experiment, HepG2 cells (1×10^6) were treated with or without 10 uM synthetic lunasin in DMEM with 10% FBS for 24 hours before growth media was replaced with cholesterol-free media to activate SREBP. After 24 hours, total protein was extracted and 10 ug protein was loaded onto 10% Tris-glycine gels, electroblotted onto nitrocellulose membrane, and immunostained with primary antibodies raised against HMG-CoA reductase and actin (to show equal loading of proteins). […]

[3] = test system: LDL-receptor expression in HepG2 cells; test: Western blot of LDL receptor expression in HepG2 cells in cholesterol-free media; assay type: cell-based; conditions: 10 uM synthetic lunasin, 24 hours, cholesterol-free media 24 hours
Experimental: as §1, with “FIG. 3” for “FIG. 2”, “of LDL receptor” for “of HMG-CoA reductase”, “were (CFM +LS(24))” for “were (CFM+LS (24))”, “activate SREBP.” for “activate sterol regulatory element binding proteins (SREBP.)”, “against LDL-receptor” for “against HMG-CoA reductase”
In the second experiment, HepG2 cells (1×10^6) were treated with or without 10 uM synthetic lunasin in DMEM with 10% FBS for 24 hours before growth media is replaced with cholesterol-free media to activate SREBP. After 24 hours, total protein was extracted and 10 ug proteins loaded onto 10% Tris-glycine gels, electroblotted onto nitrocellulose membrane, and immunostained with primary antibodies raised against LDL-receptor and actin (to show equal loading of proteins). Spot densitometer values were obtained by digital scanning and Un-Scan It software, and represent mean and standard deviation of data from three separate experiments.

[4] = test system: Sp1 expression in HepG2 cells; test: Western blot of Sp1 levels in HepG2 cells; assay type: cell-based; conditions: 10 uM synthetic lunasin, one experiment
Experimental: FIG. 4 is a photograph of a Western blot analysis (top) and a table (below) showing densitometer values indicating the relative levels of expression of Sp1 in HepG2 cells that were grown from confluence in growth media for 24 hours before growth media was replaced with fresh growth media (Media), media with lunasin (Media+LS) or cholesterol free media with lunasin (CFM+LS) or without lunasin (CFM). Samples were then incubated for 24 or 48 hours as indicated. […]
Unlike HMG-CoA reductase, SREBP activation of LDL-receptor by sterol depletion requires increased recruitment of Sp1 co-activator to a site adjacent to SREBP in the promoter/regulatory sequence of LDL-receptor gene (25). […] To test this hypothesis, the level of Sp1 was determined in lunasin-treated growth media and cholesterol-free media by Western analysis using Sp1 antibody, as follows: HepG2 cells (1×10^6) were grown from confluence in DMEM with 10% FBS for 24 hours before growth media was replaced with fresh growth media or cholesterol-free media (to activate SREBP) and treated with, or without 10 uM synthetic lunasin. […]

[5] = test system: histone H3 acetylation by PCAF; test: PCAF HAT bioactivity assay, core histones from chicken erythrocyte as template; assay type: biochemical; conditions: around 10 ug sample protein with 1 ug core histones; versus untreated control
Experimental: Lunasin-enriched soy concentrate with soy flour (LeSC+SF) retains bioactivity even when digested with digestive enzymes. Biological activity of LeSC (A), LeSC+SF (B), digested LeSC+SF (C), digested LeSC (D), digested soy protein isolate (E) and digested soy concentrate (F) was measured using the H3 histone acetyltransferase (HAT) assay (see Example 8.) Around 100 mg total protein of LeSC, LeSC+SF, soy protein isolate and soy concentrate were digested by mixing pancreatin (Sigma Life Sciences, Saint Louis, Mo.) at 1:1 (w/w) and incubating for 30 min. at 40° C. To confirm that the HAT assay is working, treatment with synthetic lunasin (+synL) was included. Synthetic lunasin reduced acetylation of histone H3 by the histone acetylase enzyme, PCAF, using core histones isolated from chicken erythrocyte (Upstate/Millipore, Billerica, Mass.) as template for the HAT assay. […]
Core histones purified from chicken erythrocyte cells were used as templates in histone acetylase (HAT) reactions using PCAF histone acetylase enzyme, in the presence or absence of around 2-10 uM lunasin. […] Chemiluminescent signals from antibody complexes were visualized using standard chemiluminescent reagents and exposed to Kodak BioMAX film, developed and spot densitometer measured by using digital scanner and UN-SCAN-IT software program from Silk Scientific (Orem, Utah).

[6] = test system: tumor formation in mammalian cells; conditions: 1,000 nM (5 μg/ml) to 10,000 nM (50 μg/ml) lunasin; cited from earlier work
[7] = cited from earlier work
[8] = 10 uM lunasin, acid-extracted histones from untreated HeLa cells

## lunasin: natural, synthetically or recombinantly obtained soybean lunasin polypeptide (SEQ. ID. 2), small subunit of a cotyledon-specific 2S albumin
[1]; [8]
  H3 Lys 14 acetylation by PCAF (antibodies to H3 Ac-Lys9 and H3 Ac-Lys14): decreased H3 Lys 14 acetylation; also recorded: specifically binds to Lys 14, preventing it from being acetylated by PCAF
  histone H3 acetylation (diacetylated H3, Ac-Lys9+Ac-Lys14) by PCAF: significant decrease in H3 acetylation; also recorded: dramatic reduction of histone H3 acetylation
[1]; core histones from HeLa cells as template
  H3 acetylation by PCAF, undigested samples (Example 6): significant reduction in H3 acetylation
[2]
  reduction of HMG-CoA reductase expression: more than 50%
[3]
  increase of LDL-receptor expression: more than 60%
[4]; cholesterol-free media
  increase of Sp1 levels in cholesterol-free media: ~60%
[4]; growth media
  Sp1 levels, lunasin-treated versus control growth media: not significantly different
[5]
  H3 acetylation by PCAF, undigested samples (Example 5): significant reduction in H3 acetylation
[6]
  tumor reduction activity compared to the control group: statistically significant tumor reduction activity
[7]
  water solubility: water soluble

Source: patent publication US20150306011A1, “METHODS FOR USING SOY PEPTIDES TO INHIBIT H3 ACETYLATION, REDUCE EXPRESSION OF HMG-COA REDUCTASE AND INCREASE LDL RECEPTOR AND SP1 EXPRESSION IN A MAMMAL” (priority 2014, published 2015)
